One assay deals with CGAS. Briefly: CGAS whole blood cytokine release assay (384-well, BacMam stimulation, IP-10 by cytometric bead array). In kind it is cell-based. The settings on record: Homo sapiens, 6 h; read-out: hWB pXC50 (converted). An outline of the steps:
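Heparinised human donor whole blood mixed with serially diluted compound plus Null BacMam stimulus, incubated 6 h at 37° C, 5% CO2. Supernatant IP-10 quantified by cytometric bead array on flow cytometer (488 nm excitation, 585/40 nm emission); inhibition of IP-10 calculated.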

For another assay, the target named is human CGAS (157-522) (Homo sapiens, UniProt Q8N884). Briefly: biochemical.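 Also: biochemical enzyme reaction, 2′3′-cGAMP product measured by RapidFire mass spectrometry (MRM) normalised to c-di-UMP internal standard, inhibition of product formation relative to high and low control wells.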
Chain of human CGAS (157-522) (Q8N884 157-522): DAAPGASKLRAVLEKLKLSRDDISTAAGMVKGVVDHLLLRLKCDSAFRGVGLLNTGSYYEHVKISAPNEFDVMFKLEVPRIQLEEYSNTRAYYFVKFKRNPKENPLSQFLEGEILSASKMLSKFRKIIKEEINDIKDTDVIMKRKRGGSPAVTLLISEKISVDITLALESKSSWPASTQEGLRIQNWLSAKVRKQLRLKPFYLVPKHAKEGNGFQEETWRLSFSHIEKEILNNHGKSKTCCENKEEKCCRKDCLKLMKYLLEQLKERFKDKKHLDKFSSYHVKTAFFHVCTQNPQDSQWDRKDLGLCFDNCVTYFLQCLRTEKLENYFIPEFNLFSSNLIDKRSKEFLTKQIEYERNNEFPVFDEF

SMILES strings stand for the structures. pIC50: −log10 of the molar value. Counter-ions that a name gives are not always drawn.

The term pIC50 denotes the negative decadic logarithm of the IC50, by convention in mol/L. Higher therefore signals a small IC50.

Take `CC(=O)N1Cc2cn3c(-c4cnc[nH]4)c(-c4nc(C(F)(F)F)n[nH]4)nc3nc2C(F)(F)C1` [Example 87, 1-[13,13-difluoro-6-(1H-imidazol-5-yl)-5-[3-(trifluoromethyl)-1H-1,2,4-triazol-5-yl]-2,4,7,11-tetraazatricyclo[7.4.0.0^3,^7]trideca-1,3,5,8-tetraen-11-yl]ethan-1-one]: the IC50 in the assay with CGAS was over 31600 nM. Further, on human CGAS (157-522), the pIC50 is 5.70.

Take `N#Cc1ccn2c(-c3c[nH]cn3)c(-c3nc(C(F)(F)F)n[nH]3)nc2n1` [Example 124, 3-(1H-imidazol-4-yl)-2-[3-(trifluoromethyl)-1H-1,2,4-triazol-5-yl]imidazo[1,2-a]pyrimidine-7-carbonitrile]: in the assay on CGAS, the IC50 was 158 nM. On human CGAS (157-522), this compound had a pIC50 of 8.20.

Turning to `CCOc1cnc2nc(-c3nc(C(F)(F)F)n[nH]3)c(-c3cnc[nH]3)n2c1` [Example 163, 5-[6-ethoxy-3-(1H-imidazol-5-yl)imidazo[1,2-a]pyrimidin-2-yl]-3-(trifluoromethyl)-1H-1,2,4-triazole], the IC50 in the assay with CGAS is 794 nM. Also, at human CGAS (157-522), the pIC50 is 8.00.

As for `FC(F)(F)c1n[nH]c(-c2nc3nc4c(cn3c2-c2cnc[nH]2)CNCC4(F)F)n1` [Example 83, 13,13-difluoro-6-(1H-imidazol-5-yl)-5-[3-(trifluoromethyl)-1H-1,2,4-triazol-5-yl]-2,4,7,11-tetraazatricyclo[7.4.0.0^3,^7]trideca-1,3,5,8-tetraene], the IC50 in the assay with CGAS is 316 nM. The pIC50 on human CGAS (157-522) was 8.10.

Turning to `FC(F)(F)c1n[nH]c(-c2nc3ncc(C4CCCC4)cn3c2-c2cnc[nH]2)n1` [Example 16, 5-[6-cyclopentyl-3-(1H-imidazol-5-yl)imidazo[1,2-a]pyrimidin-2-yl]-3-(trifluoromethyl)-1H-1,2,4-triazole, trifluoroacetic acid salt], the IC50 with CGAS was 3160 nM. Besides, the pIC50 against human CGAS (157-522) was 8.40.

With `CC(C)(C)C(=O)n1cnc(-c2c(-c3nc(C(F)(F)F)n[nH]3)nc3ncccn23)c1` [Example 81, 2,2-dimethyl-1-(4-{2-[3-(trifluoromethyl)-1H-1,2,4-triazol-5-yl]imidazo[1,2-a]pyrimidin-3-yl}-1H-imidazol-1-yl)propan-1-one], in the assay with CGAS, the IC50 was 158 nM. The same compound showed a pIC50 at human CGAS (157-522) of 8.40.

`O=C(O)CCOC(=O)OCn1cnc(-c2c(-c3nc(C(F)(F)F)nn3COC(=O)OCCC(=O)O)nc3ncccn23)c1` [Example 31, 3-({[(4-{2-[1-({[(2-carboxyethoxy)carbonyl]oxy}methyl)-3-(trifluoromethyl)-1H-1,2,4-triazol-5-yl]imidazo[1,2-a]pyrimidin-3-yl}-1H-imidazol-1-yl)methoxy]carbonyl}oxy)propanoic acid, trifluoroacetic acid salt]: the IC50 in the assay with CGAS is 5010 nM. At human CGAS (157-522), this compound had a pIC50 of 5.70.

For the compound `CC1COC(COCc2cnc3nc(-c4nc(C(F)(F)F)n[nH]4)c(-c4c[nH]cn4)n3c2)C1` (stereo not shown) [Example 156, 5-[3-(1H-imidazol-4-yl)-6-{[(4-methyloxolan-2-yl)methoxy]methyl}imidazo[1,2-a]pyrimidin-2-yl]-3-(trifluoromethyl)-1H-1,2,4-triazole], the IC50 with CGAS is 631 nM. The pIC50 on human CGAS (157-522) is 8.00.

Take `FC(F)(F)COc1cnc2nc(-c3nc(C(F)(F)F)n[nH]3)c(-c3cnc[nH]3)n2c1` [Example 160, 5-[3-(1H-imidazol-5-yl)-6-(2,2,2-trifluoroethoxy)imidazo[1,2-a]pyrimidin-2-yl]-3-(trifluoromethyl)-1H-1,2,4-triazole]: in the assay on CGAS, the IC50 is 398 nM. For the same compound, at human CGAS (157-522), the pIC50 was 8.30.

Turning to `FC(F)(F)c1n[nH]c(-c2nc3ncc(Br)cn3c2-c2cnc[nH]2)n1` [Example 77, 5-[6-bromo-3-(1H-imidazol-5-yl)imidazo[1,2-a]pyrimidin-2-yl]-3-(trifluoromethyl)-1H-1,2,4-triazole], the IC50 in the assay on CGAS was 398 nM. At human CGAS (157-522), this compound had a pIC50 of 8.70.

Take `FC(F)c1n[nH]c(-c2nc3ncccn3c2-c2cn[nH]c2)n1` [Example 90, 3-(difluoromethyl)-5-[3-(1H-pyrazol-4-yl)imidazo[1,2-a]pyrimidin-2-yl]-1H-1,2,4-triazole]: the IC50 with CGAS was 1000 nM. This compound also gave a pIC50 against human CGAS (157-522) of 8.00.

On to `CNCc1cnc2nc(-c3nc(C(F)(F)F)n[nH]3)c(-c3cnc[nH]3)n2c1` [Example 75, {[3-(1H-imidazol-5-yl)-2-[3-(trifluoromethyl)-1H-1,2,4-triazol-5-yl]imidazo[1,2-a]pyrimidin-6-yl]methyl}(methyl)amine], for which, in the assay on CGAS, the IC50 was 631 nM. For the same compound, the pIC50 at human CGAS (157-522) was 8.00.

As for `FC(F)(F)c1n[nH]c(-c2nc3ncc(COCC4CC45CCOC5)cn3c2-c2c[nH]cn2)n1` (stereo not shown) [Example 155, 5-[3-(1H-imidazol-4-yl)-6-[{{5-oxaspiro[2.4]heptan-1-yl}methoxy)methyl]imidazo[1,2-a]pyrimidin-2-yl]-3-(trifluoromethyl)-1H-1,2,4-triazole], the IC50 in the assay with CGAS is 501 nM. Moreover, the pIC50 on human CGAS (157-522) is 8.10.

As for `FC(F)(F)c1n[nH]c(-c2nc3ncc(OCC4CCOC4)cn3c2-c2c[nH]cn2)n1` (stereo not shown) [Example 135, 5-[3-(1H-imidazol-4-yl)-6-[(oxolan-3-yl)methoxy]imidazo[1,2-a]pyrimidin-2-yl]-3-(trifluoromethyl)-1H-1,2,4-triazole], the IC50 in the assay with CGAS is 631 nM. Besides, the pIC50 at human CGAS (157-522) is 8.50.

As for `O=C(O)CCOC(=O)OCn1nc(C(F)(F)F)nc1-c1nc2ncccn2c1-c1cnc[nH]1` [Example 33, 3-{[({5-[3-(1H-imidazol-5-yl)imidazo[1,2-a]pyrimidin-2-yl]-3-(trifluoromethyl)-1H-1,2,4-triazol-1-yl}methoxy)carbonyl]oxy}propanoic acid, 2 trifluoroacetic acid salt], the IC50 in the assay on CGAS was 501 nM. This compound also showed a pIC50 on human CGAS (157-522) of 6.50.

As for `FC(F)(F)c1n[nH]c(-c2nc3nc4c(cn3c2-c2cn[nH]c2)COCC4)n1` [Example 72, 6-(1H-pyrazol-4-yl)-5-[3-(trifluoromethyl)-1H-1,2,4-triazol-5-yl]-11-oxa-2,4,7-triazatricyclo[7.4.0.0^3,^7]trideca-1,3,5,8-tetraene], the IC50 with CGAS was 15800 nM. The compound also had a pIC50 against human CGAS (157-522) of 7.90.

On to `CC(=O)N1Cc2cn3c(-c4cnc[nH]4)c(-c4nc(C(F)(F)F)n[nH]4)nc3nc2C1` [Example 68, 1-[12-(1H-imidazol-5-yl)-11-[3-(trifluoromethyl)-1H-1,2,4-triazol-5-yl]-1,5,8,10-tetraazatricyclo[7.3.0.0^3,^7]dodeca-2,7,9,11-tetraen-5-yl]ethan-1-one], for which the IC50 in the assay with CGAS is 1260 nM. This compound also showed a pIC50 at human CGAS (157-522) of 8.30.

Turning to `FC(F)(F)c1n[nH]c(-c2nc3ncc(Cc4ccccc4)cn3c2-c2cnc[nH]2)n1` [Example 89, 5-[6-benzyl-3-(1H-imidazol-5-yl)imidazo[1,2-a]pyrimidin-2-yl]-3-(trifluoromethyl)-1H-1,2,4-triazole], in the assay with CGAS, the IC50 was 1580 nM. The same compound gave a pIC50 on human CGAS (157-522) of 8.60.

For `COCC(F)(F)c1ccn2c(-c3cnc[nH]3)c(-c3nc(C(F)(F)F)n[nH]3)nc2n1` [Example 19, 5-[7-(1,1-difluoro-2-methoxyethyl)-3-(1H-imidazol-5-yl)imidazo[1,2-a]pyrimidin-2-yl]-3-(trifluoromethyl)-1H-1,2,4-triazole], in the assay with CGAS, the IC50 was 398 nM. The same compound gave a pIC50 against human CGAS (157-522) of 8.20.

For `CCOCCOCc1cnc2nc(-c3nc(C(F)(F)F)n[nH]3)c(-c3cnc[nH]3)n2c1` [Example 129, 5-{6-[(2-ethoxyethoxy)methyl]-3-(1H-imidazol-5-yl)imidazo[1,2-a]pyrimidin-2-yl}-3-(trifluoromethyl)-1H-1,2,4-triazole], the IC50 in the assay on CGAS is 316 nM. The pIC50 against human CGAS (157-522) was 8.10.

On to `CCOCc1cnc2nc(-c3nc(C(F)(F)F)n[nH]3)c(-c3cnc[nH]3)n2c1` [Example 79, 5-[6-(ethoxymethyl)-3-(1H-imidazol-5-yl)imidazo[1,2-a]pyrimidin-2-yl]-3-(trifluoromethyl)-1H-1,2,4-triazole], for which the IC50 with CGAS is 100 nM. Besides, the pIC50 on human CGAS (157-522) is 8.50.

As to `CN1CCc2nc3nc(-c4nc(C(F)(F)F)n[nH]4)c(-c4cnc[nH]4)n3cc2C1` [Example 73, 6-(1H-imidazol-5-yl)-11-methyl-5-[3-(trifluoromethyl)-1H-1,2,4-triazol-5-yl]-2,4,7,11-tetraazatricyclo[7.4.0.0^3,^7]trideca-1,3,5,8-tetraene], in the assay on CGAS, the IC50 is 794 nM. Besides, on human CGAS (157-522), the pIC50 was 8.20.

`COc1cnc2nc(-c3nc(C(F)(F)F)n[nH]3)c(-c3cnc[nH]3)n2c1` [Example 58, 5-[3-(1H-imidazol-5-yl)-6-methoxyimidazo[1,2-a]pyrimidin-2-yl]-3-(trifluoromethyl)-1H-1,2,4-triazole]: the IC50 with CGAS was 316 nM. Besides, the pIC50 against human CGAS (157-522) is 8.00.

As for `CCCOc1cnc2nc(-c3nc(C(F)(F)F)n[nH]3)c(-c3cnc[nH]3)n2c1` [Example 154, 5-[3-(1H-imidazol-5-yl)-6-propoxyimidazo[1,2-a]pyrimidin-2-yl]-3-(trifluoromethyl)-1H-1,2,4-triazole], in the assay with CGAS, the IC50 was 501 nM. The same compound gave a pIC50 at human CGAS (157-522) of 8.40.

Turning to `FC(F)(F)c1n[nH]c(-c2nc3nc4c(cn3c2-c2c[nH]cn2)C2CCC(C4)O2)n1` (stereo not shown) [Example 136, 5-(1H-imidazol-4-yl)-6-[3-(trifluoromethyl)-1H-1,2,4-triazol-5-yl]-15-oxa-4,7,9-triazatetracyclo[10.2.1.0^2,^10.0^4,^8]pentadeca-2,5,7,9-tetraene], the IC50 in the assay on CGAS is 316 nM. Also, the pIC50 at human CGAS (157-522) is 8.10.

As to `OCC(F)(F)c1ccn2c(-c3cnc[nH]3)c(-c3nc(C(F)(F)F)n[nH]3)nc2n1` [Example 6, 2,2-difluoro-2-[3-(1H-imidazol-5-yl)-2-[3-(trifluoromethyl)-1H-1,2,4-triazol-5-yl]imidazo[1,2-a]pyrimidin-7-yl]ethan-1-ol], the IC50 in the assay on CGAS is 501 nM. Moreover, at human CGAS (157-522), the pIC50 was 8.40.

For the origin of these results see patent publication US12247033B2, “Triazole-substituted imidazo[1,2-a]pyrimidines as cGAS inhibitors” (GlaxoSmithKline Intellectual Property Development Limited, priority 2022, dated 2025).
